Reference: the NIST ThermoML archive (doi:10.1021/acs.jced.7b00191)
± gives the expanded uncertainty stated by the source.

Conditions: Liquid; Visual observation in an unstirred cell

Q: Which Critical temperature does the source give for `Clc1ccccc1Cl` [1,2-dichlorobenzene] here?
A: 698.8 ± 2.8 K

Q: With `CC(C)CC(C)(C)C` [2,2,4-trimethylpentane] as the compound, how does the Critical temperature read?
A: 544 ± 2.8 K

Q: Which Critical temperature does the source give for `CCC(C)(C)C` [2,2-dimethylbutane] here?
A: 489.4 ± 2.8 K

Q: For `c1ccccc1` [benzene], which Critical temperature is on record?
A: 562.2 ± 2.8 K

Q: With `Fc1ccccc1` [fluorobenzene] as the compound, how does the Critical temperature read?
A: 557.3 ± 2.8 K

Q: For `CCCCCCC` [heptane], which Critical temperature is on record?
A: 540.6 ± 2.8 K

Q: Which Critical temperature does the source give for `CCCCCC` [hexane] here?
A: 507.4 ± 2.8 K

Q: For `CCCCCCCC` [octane], which Critical temperature is on record?
A: 568.8 ± 2.8 K
